Measured values reported in patent publication US20260207559A1, “(S)-(3-(1-(1H-IMIDAZOL-4-YL)ETHYL)-2-METHYLPHENYL)METHANOL FOR TREATMENT OF AGITATION” (Alceptor Therapeutics, Inc., priority 2022, published 2026).
Where two headings read alike, the source gives them in different places. Blank lines part the entries; values can stand above or below the compound they belong to.

Tests used:
[1] = Pharmacokinetics in rodents, plasma and brain (species not specified)
Method: (§1) Groups of rodents were dosed either intravenously or orally in order to determine certain pharmacokinetic properties, including oral bioavailability and half-life. Bioavailability was determined by comparing plasma exposure following IV dosing in a [19% hydroxypropyl beta-cyclodextrin/5% DMSO in saline] formulation with plasma exposure following dosing by oral gavage in a 0.5% methyl cellulose formulation.

laboratory rodents = tested on: laboratory rodents
Description: The resident-intruder model is an established preclinical model of aggression and agitation, and allows spontaneous and natural expression of both offensive aggression/agitation and defensive behavior in laboratory rodents in a semi natural laboratory setting. […] The latency to attack and the number of attacks are measures of agitation.

Mice = conditions: for Inhibition of distance travelled: 30-minute session
Method: Sedation is assessed in the Locomotor Activity (LMA) model. Mice are placed in a novel chamber and their exploratory activity during a 30-minute session is measured as distance traveled.

in vivo = experiment: in vivo
Method: as §1

[2] = tested on: 7 different human CYP enzymes; experiment: Metabolism by panel of human recombinant CYP enzymes, % compound remaining; conditions: all incubations (7 CYPs); 2 µM; up to 60 min; NADPH
[3] = Pharmacokinetics after IV or oral dosing in mice
Method: as §1

CYP2B6 = CYP2B6 (Homo sapiens, UniProt P20813); conditions: recombinant enzyme, 1 h, 2 µM
CYP2C8 = CYP2C8 (Homo sapiens, UniProt P10632); conditions: recombinant enzyme, 1 h, 2 µM
CYP3A4 = CYP3A4 (Homo sapiens, UniProt P08684); conditions: recombinant enzyme, 1 h, 2 µM
CYP2C19 = CYP2C19 (Homo sapiens, UniProt P33261); conditions: recombinant enzyme, 1 h, 2 µM
CYP2D6 = CYP2D6 (Homo sapiens, UniProt P10635); conditions: recombinant enzyme, 1 h, 2 µM
Sequence of CYP2D6 (P10635 whole entry): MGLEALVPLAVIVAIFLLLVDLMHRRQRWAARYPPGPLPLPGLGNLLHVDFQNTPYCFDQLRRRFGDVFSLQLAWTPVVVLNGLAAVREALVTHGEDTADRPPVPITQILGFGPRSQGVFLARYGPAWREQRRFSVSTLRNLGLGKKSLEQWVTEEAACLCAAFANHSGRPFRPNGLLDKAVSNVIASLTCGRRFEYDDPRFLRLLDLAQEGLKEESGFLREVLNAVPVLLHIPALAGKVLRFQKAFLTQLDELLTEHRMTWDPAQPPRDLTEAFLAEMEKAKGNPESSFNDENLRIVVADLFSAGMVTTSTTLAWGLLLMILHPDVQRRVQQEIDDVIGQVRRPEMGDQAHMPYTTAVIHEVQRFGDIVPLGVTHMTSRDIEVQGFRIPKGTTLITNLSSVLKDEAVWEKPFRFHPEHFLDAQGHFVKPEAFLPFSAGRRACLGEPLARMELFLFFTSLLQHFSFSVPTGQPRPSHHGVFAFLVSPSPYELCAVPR

Sequence of CYP3A4 (P08684 whole entry): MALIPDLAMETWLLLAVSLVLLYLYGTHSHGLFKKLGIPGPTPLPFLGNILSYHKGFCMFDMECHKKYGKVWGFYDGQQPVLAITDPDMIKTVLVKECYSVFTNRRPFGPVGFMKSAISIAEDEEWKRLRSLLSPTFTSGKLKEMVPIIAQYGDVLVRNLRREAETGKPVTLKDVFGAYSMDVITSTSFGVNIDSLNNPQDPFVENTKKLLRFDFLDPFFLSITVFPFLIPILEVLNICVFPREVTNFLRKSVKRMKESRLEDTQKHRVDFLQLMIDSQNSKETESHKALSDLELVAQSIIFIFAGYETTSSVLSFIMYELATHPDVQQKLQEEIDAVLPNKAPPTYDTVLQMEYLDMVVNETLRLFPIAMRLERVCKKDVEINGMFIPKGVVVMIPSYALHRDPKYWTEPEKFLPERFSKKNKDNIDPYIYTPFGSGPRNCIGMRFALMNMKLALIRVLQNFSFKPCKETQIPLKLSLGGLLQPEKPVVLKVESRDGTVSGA
Sequence of CYP2B6 (P20813 whole entry): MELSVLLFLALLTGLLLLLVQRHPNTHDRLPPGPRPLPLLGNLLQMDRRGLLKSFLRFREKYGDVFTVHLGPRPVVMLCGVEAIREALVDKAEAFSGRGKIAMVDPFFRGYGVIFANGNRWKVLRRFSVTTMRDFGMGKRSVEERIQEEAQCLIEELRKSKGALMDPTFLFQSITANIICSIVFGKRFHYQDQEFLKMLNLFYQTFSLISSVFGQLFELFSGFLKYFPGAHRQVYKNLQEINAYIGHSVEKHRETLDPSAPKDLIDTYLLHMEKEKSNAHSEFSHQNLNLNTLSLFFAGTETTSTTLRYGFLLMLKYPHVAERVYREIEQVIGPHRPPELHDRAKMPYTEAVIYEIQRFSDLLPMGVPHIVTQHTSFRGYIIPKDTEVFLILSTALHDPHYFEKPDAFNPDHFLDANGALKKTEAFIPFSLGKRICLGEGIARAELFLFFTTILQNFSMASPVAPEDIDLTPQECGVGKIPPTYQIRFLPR
Sequence of CYP2C19 (P33261 whole entry): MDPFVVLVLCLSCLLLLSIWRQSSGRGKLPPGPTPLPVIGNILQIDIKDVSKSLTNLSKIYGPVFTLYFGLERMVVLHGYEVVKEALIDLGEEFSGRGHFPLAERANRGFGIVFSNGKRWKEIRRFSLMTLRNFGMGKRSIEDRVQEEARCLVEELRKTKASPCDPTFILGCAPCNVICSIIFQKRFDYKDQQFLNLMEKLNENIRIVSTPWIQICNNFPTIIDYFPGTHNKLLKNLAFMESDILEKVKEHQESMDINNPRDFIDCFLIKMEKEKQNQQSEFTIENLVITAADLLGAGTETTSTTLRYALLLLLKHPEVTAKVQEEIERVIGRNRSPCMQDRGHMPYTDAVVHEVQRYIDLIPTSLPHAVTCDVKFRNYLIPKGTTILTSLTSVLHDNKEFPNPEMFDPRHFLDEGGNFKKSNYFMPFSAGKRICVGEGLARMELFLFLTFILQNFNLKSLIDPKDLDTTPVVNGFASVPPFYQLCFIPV
Sequence of CYP2C8 (P10632 whole entry): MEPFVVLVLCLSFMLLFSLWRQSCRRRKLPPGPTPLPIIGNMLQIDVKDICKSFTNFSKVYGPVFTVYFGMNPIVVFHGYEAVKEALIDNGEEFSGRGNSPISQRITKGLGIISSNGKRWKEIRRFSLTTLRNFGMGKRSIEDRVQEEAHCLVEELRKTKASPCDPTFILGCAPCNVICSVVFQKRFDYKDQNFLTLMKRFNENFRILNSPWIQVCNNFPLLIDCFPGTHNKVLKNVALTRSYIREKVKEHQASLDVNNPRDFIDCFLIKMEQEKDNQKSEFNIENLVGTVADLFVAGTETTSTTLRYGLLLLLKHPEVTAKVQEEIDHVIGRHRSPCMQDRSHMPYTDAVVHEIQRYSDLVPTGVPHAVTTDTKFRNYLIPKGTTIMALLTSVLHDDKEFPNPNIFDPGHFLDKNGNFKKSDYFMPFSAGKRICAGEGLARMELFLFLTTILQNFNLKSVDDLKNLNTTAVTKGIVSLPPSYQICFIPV

SMILES: Cc1c(CO)cccc1[C@H](C)c1c[nH]cn1
Mean decrease of levels in plasma and brain ([1]; between 2 and 8 hrs): < 2 fold
Time to achieve pharmacological concentrations in the brain ([1]; brain): ≤ 30 minutes
half-life ([1]; plasma, po): 4.2 to 7 h
Half-life relative to dexmedetomidine (longer) ([1]; rodents (mice and rats), plasma, oral): 2- to 4 fold
Activity in resident-intruder model (laboratory rodents; 1 mg/kg): minimal activity
Sedation in LMA model (Mice; 1 mg/kg): minimally sedating
Inhibition of distance travelled (Mice; 2 mg/kg): about 25%
Inhibition of distance travelled (Mice; 3 mg/kg): < 50%
Maximum achievable level of activity in the LMA model (Mice; compared with dexmedetomidine): less than the maximum achievable level of activity with dexmedetomidine
bioavailability (in vivo; rat, in vivo): ≤ 34%
Time to maximum plasma concentration (in vivo; rats): ≤ 17 min
Concentration as % of the starting concentration [2]: > 90%
Time to maximum plasma concentration ([3]; mice): ≤ 10 min
bioavailability ([3]; mouse, plasma, oral): ≤ 51%

SMILES: Cc1c(CO)cccc1[C@@H](C)c1c[nH]cn1 [(R)-(3-(1-(1H-imidazol-4-yl)ethyl)-2-methylphenyl)methanol]
bioavailability (in vivo; rat, in vivo, po): 7%

% of compound remaining (CYP2B6): 28%
% of compound remaining (CYP2C8): 84%
bioavailability (in vivo; rat, in vivo, po): 8.6%
half-life (in vivo; rat, in vivo, po): 2 h
% of compound remaining (CYP3A4): 89%
% of compound remaining (CYP2C19): 74%
% of compound remaining (CYP2D6): 7%
SMILES: Cc1cccc([C@H](C)c2cnc[nH]2)c1C [dexmedetomidine]
Inhibition of attacks (laboratory rodents; 0.2 mg/kg): 20%
